Experimental data reported in US20110039721A1, “METHOD FOR PREDICTION ABOUT CARCINOGENICITY OF SUBSTANCE IN RODENT” (Chemicals Evaluation and Research Institute, priority 2007, published 2011).

What was measured:
[1] = test system: mRNA expressed from the genes (A) to (D) in rat liver; assay: Behavior of genes (mRNA expression level, oligo-DNA microarray) in rat liver after 28-day oral administration; type: in vivo; details: for Behavior of gene caused by administration of chemical substance, Gene No. 4846 / Behavior of gene caused by administration of chemical substance, Gene No. 2026 / Behavior of gene caused by administration of chemical substance, Gene No. 4218 / Behavior of gene caused by administration of chemical substance, Gene No. 6182 / Behavior of gene caused by administration of chemical substance, Gene No. 5600: gene group (A); for Behavior of gene caused by administration of chemical substance, Gene No. 4846: Unigene No. Rn.144554; for Behavior of gene caused by administration of chemical substance, Gene No. 2026 / Behavior of gene caused by administration of chemical substance, Gene No. 4218: Unigene No. Rn.167075; for Behavior of gene caused by administration of chemical substance, Gene No. 6182: Unigene No. Rn.5834; for Behavior of gene caused by administration of chemical substance, Gene No. 5600: Unigene No. Rn.9836; for Behavior of gene caused by administration of chemical substance, Gene No. 1494 / Behavior of gene caused by administration of chemical substance, Gene No. 2045 / Behavior of gene caused by administration of chemical substance, Gene No. 2203: gene group (B); for Behavior of gene caused by administration of chemical substance, Gene No. 1494: Unigene No. Rn.1430; for Behavior of gene caused by administration of chemical substance, Gene No. 2045: Unigene No. Rn.19329; for Behavior of gene caused by administration of chemical substance, Gene No. 2203: Unigene No. Rn.21240; for Behavior of gene caused by administration of chemical substance, Gene No. 533 / Behavior of gene caused by administration of chemical substance, Gene No. 725 / Behavior of gene caused by administration of chemical substance, Gene No. 1163 / Behavior of gene caused by administration of chemical substance, Gene No. 4973 / Behavior of gene caused by administration of chemical substance, Gene No. 4095 / Behavior of gene caused by administration of chemical substance, Gene No. 1334 / Behavior of gene caused by administration of chemical substance, Gene No. 6620 / Behavior of gene caused by administration of chemical substance, Gene No. 6303 / Behavior of gene caused by administration of chemical substance, Gene No. 5878 / Behavior of gene caused by administration of chemical substance, Gene No. 1131 / Behavior of gene caused by administration of chemical substance, Gene No. 1562 / Behavior of gene caused by administration of chemical substance, Gene No. 1741 / Behavior of gene caused by administration of chemical substance, Gene No. 893 / Behavior of gene caused by administration of chemical substance, Gene No. 6026 / Behavior of gene caused by administration of chemical substance, Gene No. 154 / Behavior of gene caused by administration of chemical substance, Gene No. 1993 / Behavior of gene caused by administration of chemical substance, Gene No. 813 / Behavior of gene caused by administration of chemical substance, Gene No. 2494 / Behavior of gene caused by administration of chemical substance, Gene No. 2546 / Behavior of gene caused by administration of chemical substance, Gene No. 3776 / Behavior of gene caused by administration of chemical substance, Gene No. 3929 / Behavior of gene caused by administration of chemical substance, Gene No. 1119 / Behavior of gene caused by administration of chemical substance, Gene No. 6742 / Behavior of gene caused by administration of chemical substance, Gene No. 5634: gene group (C); for Behavior of gene caused by administration of chemical substance, Gene No. 533: Unigene No. Rn.106184; for Behavior of gene caused by administration of chemical substance, Gene No. 725: Unigene No. Rn.108075; for Behavior of gene caused by administration of chemical substance, Gene No. 1163: Unigene No. Rn.11766; for Behavior of gene caused by administration of chemical substance, Gene No. 4973: Unigene No. Rn.118529; for Behavior of gene caused by administration of chemical substance, Gene No. 4095: Unigene No. Rn.119024; for Behavior of gene caused by administration of chemical substance, Gene No. 1334 / Behavior of gene caused by administration of chemical substance, Gene No. 6620: Unigene No. Rn.120914; for Behavior of gene caused by administration of chemical substance, Gene No. 6303: Unigene No. Rn.123063; for Behavior of gene caused by administration of chemical substance, Gene No. 5878: Unigene No. Rn.143213; for Behavior of gene caused by administration of chemical substance, Gene No. 1131: Unigene No. Rn.144946; for Behavior of gene caused by administration of chemical substance, Gene No. 1562: Unigene No. Rn.14744; for Behavior of gene caused by administration of chemical substance, Gene No. 1741: Unigene No. Rn.1647; for Behavior of gene caused by administration of chemical substance, Gene No. 893: Unigene No. Rn.164817; for Behavior of gene caused by administration of chemical substance, Gene No. 6026: Unigene No. Rn.167685; for Behavior of gene caused by administration of chemical substance, Gene No. 154: Unigene No. Rn.185941; for Behavior of gene caused by administration of chemical substance, Gene No. 1993: Unigene No. Rn.18728; for Behavior of gene caused by administration of chemical substance, Gene No. 813: Unigene No. Rn.201760; for Behavior of gene caused by administration of chemical substance, Gene No. 2494: Unigene No. Rn.23969; for Behavior of gene caused by administration of chemical substance, Gene No. 2546: Unigene No. Rn.24561; for Behavior of gene caused by administration of chemical substance, Gene No. 3776: Unigene No. Rn.43232; for Behavior of gene caused by administration of chemical substance, Gene No. 3929: Unigene No. Rn.4620; for Behavior of gene caused by administration of chemical substance, Gene No. 1119: Unigene No. Rn.9757; for Behavior of gene caused by administration of chemical substance, Gene No. 6742: Unigene No. Rn.9779; for Behavior of gene caused by administration of chemical substance, Gene No. 5634: Unigene No. Rn.9862; for Behavior of gene caused by administration of chemical substance, Gene No. 5726: gene group (D), Unigene No. Rn.9939
Method in brief: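 Male F344 SPF rats, 5 weeks old, four per group, received carcinogens, non-carcinogens or solvent vehicle by oral gavage once daily for 28 days. Liver total RNA was then extracted. Changes of ≥1.5-fold or ≤1/1.5 versus vehicle control, in a consistent direction across carcinogens, counted as significant.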

[2] = test system: liver; details: in vivo; cited from earlier work
[3] = test system: rodent; details: in vivo; cited from earlier work

Row | Structure (SMILES) | Behavior of gene caused by administration of chemical substance, Gene No. 4846 [1] | Behavior of gene caused by administration of chemical substance, Gene No. 2026 [1] | Behavior of gene caused by administration of chemical substance, Gene No. 4218 [1] | Behavior of gene caused by administration of chemical substance, Gene No. 6182 [1] | Behavior of gene caused by administration of chemical substance, Gene No. 5600 [1] | Behavior of gene caused by administration of chemical substance, Gene No. 1494 [1] | Behavior of gene caused by administration of chemical substance, Gene No. 2045 [1] | Behavior of gene caused by administration of chemical substance, Gene No. 2203 [1] | Behavior of gene caused by administration of chemical substance, Gene No. 533 [1] | Behavior of gene caused by administration of chemical substance, Gene No. 725 [1] | Behavior of gene caused by administration of chemical substance, Gene No. 1163 [1] | Behavior of gene caused by administration of chemical substance, Gene No. 4973 [1] | Behavior of gene caused by administration of chemical substance, Gene No. 4095 [1] | Behavior of gene caused by administration of chemical substance, Gene No. 1334 [1] | Behavior of gene caused by administration of chemical substance, Gene No. 6620 [1] | Behavior of gene caused by administration of chemical substance, Gene No. 6303 [1] | Behavior of gene caused by administration of chemical substance, Gene No. 5878 [1] | Behavior of gene caused by administration of chemical substance, Gene No. 1131 [1] | Behavior of gene caused by administration of chemical substance, Gene No. 1562 [1] | Behavior of gene caused by administration of chemical substance, Gene No. 1741 [1] | also measured
1 | Nc1ccc(N)c(Cl)c1.O=S(=O)(O)O [TS058, 2-Chloro-p-phenylenediamine SO4] | − | − | − | − | − | − | + | − | − | − | + | − | − | − | − | − | − | − | − | − | Behavior of gene caused by administration of chemical substance, Gene No. 893 [1]: −; Behavior of gene caused by administration of chemical substance, Gene No. 6026 [1]: −; Behavior of gene caused by administration of chemical substance, Gene No. 154 [1]: +; Behavior of gene caused by administration of chemical substance, Gene No. 1993 [1]: −; Behavior of gene caused by administration of chemical substance, Gene No. 813 [1]: −; Behavior of gene caused by administration of chemical substance, Gene No. 2494 [1]: +; Behavior of gene caused by administration of chemical substance, Gene No. 2546 [1]: +; Behavior of gene caused by administration of chemical substance, Gene No. 3776 [1]: −; Behavior of gene caused by administration of chemical substance, Gene No. 3929 [1]: −; Behavior of gene caused by administration of chemical substance, Gene No. 1119 [1]: +; Behavior of gene caused by administration of chemical substance, Gene No. 6742 [1]: −; Behavior of gene caused by administration of chemical substance, Gene No. 5634 [1]: +; Behavior of gene caused by administration of chemical substance, Gene No. 5726 [1]: −; Liver carcinogenicity [2]: Cr−; Carcinogenicity [3]: C−
2 | Cc1cc(N)ccc1N.O=S(=O)(O)O [TS060, 2,5-Toluenediamine SO4] | − | − | − | − | − | − | − | − | − | − | + | − | − | − | − | − | − | + | − | − | Behavior of gene caused by administration of chemical substance, Gene No. 893 [1]: +; Behavior of gene caused by administration of chemical substance, Gene No. 6026 [1]: −; Behavior of gene caused by administration of chemical substance, Gene No. 154 [1]: −; Behavior of gene caused by administration of chemical substance, Gene No. 1993 [1]: −; Behavior of gene caused by administration of chemical substance, Gene No. 813 [1]: −; Behavior of gene caused by administration of chemical substance, Gene No. 2494 [1]: −; Behavior of gene caused by administration of chemical substance, Gene No. 2546 [1]: −; Behavior of gene caused by administration of chemical substance, Gene No. 3776 [1]: −; Behavior of gene caused by administration of chemical substance, Gene No. 3929 [1]: +; Behavior of gene caused by administration of chemical substance, Gene No. 1119 [1]: −; Behavior of gene caused by administration of chemical substance, Gene No. 6742 [1]: −; Behavior of gene caused by administration of chemical substance, Gene No. 5634 [1]: +; Behavior of gene caused by administration of chemical substance, Gene No. 5726 [1]: −; Liver carcinogenicity [2]: Cr−; Carcinogenicity [3]: C−
